Source: ChEMBL document CHEMBL1155820, “Lipid-conjugated oligonucleotides via "click chemistry" efficiently inhibit hepatitis C virus translation” (J Med Chem, 2008)
Active and inactive are the calls of the source. The rule behind the calls is not given here.

Assays:
[1] = system: Hepatitis C virus; experiment: Inhibition of hepatitis C virus internal ribosome entry site-mediated translation in human Huh7 cells at 1 uM preincubated for 4 hrs in presence of fetal calf serum by bicistronic luciferase reporter gene assay; type: functional, Hepacivirus hominis; conditions: Huh-7
[2] = Cytotoxicity against human Huh7 cells at 0.1 to 2 uM; type: cell-based; conditions: huh-7, 2 µM
[3] = system: Hepatitis C virus; experiment: Inhibition of hepatitis C virus internal ribosome entry site-mediated translation in human Huh7 cells preincubated for 4 hrs in presence of fetal calf serum by bicistronic luciferase reporter gene assay; type: functional, organism-based; conditions: Hepacivirus hominis; Huh-7
[4] = system: Hepatitis C virus; experiment: Inhibition of hepatitis C virus internal ribosome entry site-mediated translation in human Huh7 cells at 2 uM preincubated for 4 hrs in presence of fetal calf serum by bicistronic luciferase reporter gene assay; type: functional, Hepacivirus hominis; conditions: Huh-7

Structure (SMILES)	inhibition at 1 µM [1] [%]	Activity [2]	Activity [3]	inhibition at 2 µM [4] [%]
CO[C@@H]1[C@H](OP(=O)(O)O)[C@@H](COP(=O)(O)O[C@H]2[C@@H](OC)[C@H](n3cnc4c(=O)[nH]c(N)nc43)O[C@@H]2COP(=O)(O)O[C@H]2[C@@H](OC)[C@H](n3cnc4c(=O)[nH]c(N)nc43)O[C@@H]2COP(=O)(O)O[C@H]2[C@@H](OC)[C@H](n3ccc(N)nc3=O)O[C@@H]2COP(=O)(O)O[C@H]2[C@@H](OC)[C@H](n3ccc(=O)[nH]c3=O)O[C@@H]2COP(=O)(O)O[C@H]2[C@@H](OC)[C@H](n3ccc(N)nc3=O)O[C@@H]2COP(=O)(O)O[C@H]2[C@@H](OC)[C@H](n3cnc4c(N)ncnc43)O[C@@H]2COP(=O)(O)O[C@H]2[C@@H](OC)[C@H](n3ccc(=O)[nH]c3=O)O[C@@H]2COP(=O)(O)O[C@H]2[C@@H](OC)[C@H](n3ccc(N)nc3=O)O[C@@H]2COP(=O)(O)O[C@H]2[C@@H](OC)[C@H](n3cnc4c(N)ncnc43)O[C@@H]2COP(=O)(O)O[C@H]2[C@@H](OC)[C@H](n3ccc(N)nc3=O)O[C@@H]2COP(=O)(O)O[C@H]2[C@@H](OC)[C@H](n3cnc4c(N)ncnc43)O[C@@H]2COP(=O)(O)OP(=O)(O)O[C@H]2[C@@H](OC)[C@H](n3cnc4c(N)ncnc43)O[C@@H]2COP(=O)(O)O[C@H]2[C@@H](OC)[C@H](n3ccc(N)nc3=O)O[C@@H]2COP(=O)(O)O[C@H]2[C@@H](OC)[C@H](n3ccc(N)nc3=O)O[C@@H]2COP(=O)(O)O[C@H]2[C@@H](OC)[C@H](n3ccc(N)nc3=O)O[C@@H]2COP(=O)(O)O[C@H]2[C@@H](OC)[C@H](n3cnc4c(N)ncnc43)O[C@@H]2COP(=O)(O)O[C@H]2C[C@H](n3cc(C)c(=O)[nH]c3=O)O[C@@H]2CN2C=C(CO[C@H]3CC[C@@]4(C)C(=CC[C@H]5[C@@H]6CC[C@H]([C@H](C)CCCC(C)C)[C@@]6(C)CC[C@@H]54)C3)NN2)O[C@H]1n1ccc(N)nc1=O	50	Non-toxic	Dose-dependent effect	
CO[C@@H]1[C@H](OP(=O)(O)O)[C@@H](COP(=O)(O)O[C@H]2[C@@H](OC)[C@H](n3cnc4c(=O)[nH]c(N)nc43)O[C@@H]2COP(=O)(O)O[C@H]2[C@@H](OC)[C@H](n3cnc4c(=O)[nH]c(N)nc43)O[C@@H]2COP(=O)(O)O[C@H]2[C@@H](OC)[C@H](n3ccc(N)nc3=O)O[C@@H]2COP(=O)(O)O[C@H]2[C@@H](OC)[C@H](n3ccc(=O)[nH]c3=O)O[C@@H]2COP(=O)(O)O[C@H]2[C@@H](OC)[C@H](n3ccc(N)nc3=O)O[C@@H]2COP(=O)(O)O[C@H]2[C@@H](OC)[C@H](n3cnc4c(N)ncnc43)O[C@@H]2COP(=O)(O)O[C@H]2[C@@H](OC)[C@H](n3ccc(=O)[nH]c3=O)O[C@@H]2COP(=O)(O)O[C@H]2[C@@H](OC)[C@H](n3ccc(N)nc3=O)O[C@@H]2COP(=O)(O)O[C@H]2[C@@H](OC)[C@H](n3cnc4c(N)ncnc43)O[C@@H]2COP(=O)(O)O[C@H]2[C@@H](OC)[C@H](n3ccc(N)nc3=O)O[C@@H]2COP(=O)(O)O[C@H]2[C@@H](OC)[C@H](n3cnc4c(N)ncnc43)O[C@@H]2COP(=O)(O)OP(=O)(O)O[C@H]2[C@@H](OC)[C@H](n3cnc4c(N)ncnc43)O[C@@H]2COP(=O)(O)O[C@H]2[C@@H](OC)[C@H](n3ccc(N)nc3=O)O[C@@H]2COP(=O)(O)O[C@H]2[C@@H](OC)[C@H](n3ccc(N)nc3=O)O[C@@H]2COP(=O)(O)O[C@H]2[C@@H](OC)[C@H](n3ccc(N)nc3=O)O[C@@H]2COP(=O)(O)O[C@H]2[C@@H](OC)[C@H](n3cnc4c(N)ncnc43)O[C@@H]2COP(=O)(O)O)O[C@H]1n1ccc(N)nc1=O			inactive	
CCCCCCCCCCCCCCCCCCOCC1=CN(C[C@H]2O[C@@H](n3cc(C)c(=O)[nH]c3=O)C[C@@H]2OP(=O)(O)OC[C@H]2O[C@@H](n3cnc4c(N)ncnc43)[C@H](OC)[C@@H]2OP(=O)(O)OC[C@H]2O[C@@H](n3ccc(N)nc3=O)[C@H](OC)[C@@H]2OP(=O)(O)OC[C@H]2O[C@@H](n3ccc(N)nc3=O)[C@H](OC)[C@@H]2OP(=O)(O)OC[C@H]2O[C@@H](n3ccc(N)nc3=O)[C@H](OC)[C@@H]2OP(=O)(O)OC[C@H]2O[C@@H](n3cnc4c(N)ncnc43)[C@H](OC)[C@@H]2OP(=O)(O)OP(=O)(O)OC[C@H]2O[C@@H](n3cnc4c(N)ncnc43)[C@H](OC)[C@@H]2OP(=O)(O)OC[C@H]2O[C@@H](n3ccc(N)nc3=O)[C@H](OC)[C@@H]2OP(=O)(O)OC[C@H]2O[C@@H](n3cnc4c(N)ncnc43)[C@H](OC)[C@@H]2OP(=O)(O)OC[C@H]2O[C@@H](n3ccc(N)nc3=O)[C@H](OC)[C@@H]2OP(=O)(O)OC[C@H]2O[C@@H](n3ccc(=O)[nH]c3=O)[C@H](OC)[C@@H]2OP(=O)(O)OC[C@H]2O[C@@H](n3cnc4c(N)ncnc43)[C@H](OC)[C@@H]2OP(=O)(O)OC[C@H]2O[C@@H](n3ccc(N)nc3=O)[C@H](OC)[C@@H]2OP(=O)(O)OC[C@H]2O[C@@H](n3ccc(=O)[nH]c3=O)[C@H](OC)[C@@H]2OP(=O)(O)OC[C@H]2O[C@@H](n3ccc(N)nc3=O)[C@H](OC)[C@@H]2OP(=O)(O)OC[C@H]2O[C@@H](n3cnc4c(=O)[nH]c(N)nc43)[C@H](OC)[C@@H]2OP(=O)(O)OC[C@H]2O[C@@H](n3cnc4c(=O)[nH]c(N)nc43)[C@H](OC)[C@@H]2OP(=O)(O)OC[C@H]2O[C@@H](n3ccc(N)nc3=O)[C@H](OC)[C@@H]2OP(=O)(O)O)NN1		Non-toxic	Dose-dependent effect	50
